Data as given in US20250346943A1, “DEGRADER COMPOUNDS OF QSOX1 mRNA” (UNIVERSITY OF FLORIDA RESEARCH FOUNDATION, INCORPORATED, priority 2022, published 2025).

Legend:
[1] = system: mutant RNA (U-bulge mutated to U/A base pair); experiment: Optical melting, mutant model RNA; format: binding
Method: (§1) Optical Melting Experiments. The thermal stability of WT and mutant model RNAs in the presence and absence of F1-Amide was measured by optical melting. The RNA ([…]) was prepared in 1× Melting Buffer (8 mM Na2HPO4, pH 7, 10 mM NaCl, and 1 mM EDTA) and heated to 95° C. followed by cooling on ice. F1-Amide was added to the final concentration of 2 mM; an equal volume of DMSO was added to the vehicle sample. The absorbance of the solution at 260 nm was measured by a Beckman Coulter DU800 spectrophotometer as a function of temperature, from 12° C. to 85° C. at a rate of 1° C./min. The background absorbance of buffer with DMSO or compound was subtracted before fitting the curve with MeltWin (v3.5)^7 to determine the melting temperature (Tm) and the Gibbs free energy (ΔG37° C.).

[2] = system: WT model of the QSOX1-a hairpin structure; experiment: Optical melting, WT model RNA; format: binding, human
Method: as §1

[3] = system: wild type (WT) QSOX1 5′ UTR RNA hairpin; experiment: In vitro Chem-CLIP and competitive Chem-CLIP with Cy5-labeled WT RNA; format: binding, human; settings: constant concentration of F1, increasing competitor
Method: In Vitro Chemical-Crosslinking and Isolation by Pull-down (Chem-CLIP) with Fluorescently Labeled RNA. Cy5-labeled RNA (100 μL, 2 μM) was folded by heating at 95° C. for 2 min in 1× Folding Buffer and cooled on ice. The RNA was then mixed with F1 at the indicated concentrations. The sample was irradiated with UV light (365 nm) for 15 min and then added to 100 μL of azide-disulfide agarose beads (Click Chemistry Tools, 1238-2) pre-washed with 200 μL of 25 mM HEPES, pH 7.0. A click reaction solution was prepared by mixing 30 μL of 250 mM sodium ascorbate, 30 μL of 10 mM CuSO4, and 30 μL of 50 mM THPTA, which was added to the sample. The sample was incubated while rotating at 37° C. for 2 h, briefly centrifuged, and then the supernatant was decanted. The beads were washed six times with 1× Washing Buffer (10 mM Tris-HCl, pH 7, 4 M NaCl, 1 mM EDTA, and 0.05% (v/v) Tween-20) following by incubation with 1× Releasing Buffer (50 mM TCEP and 100 mM K2CO3) at 37° C. for 30 min. An equivalent of iodoacetamide (200 mM) was added to the sample, which was incubated at 37° C. for an additional 30 min. The sample was briefly centrifuged and supernatant containing RNA was carefully transferred to a clean tube. Cy-5 fluorescence in the supernatant was measured with a Molecular Devices SpectraMax M5 plate reader with an excitation wavelength of 640 nm and an emission wavelength of 680 nm. For competitive Chem-CLIP, F1-RIBOTAC was added to the folded the RNA and incubated at room temperature for 15 min prior to the addition of F1. Pull-down was then completed as described above.

[4] = target: QSOX1 5′UTR hairpin (model of the QSOX1-a binding site); experiment: In vitro binding by fluorescence polarization, Cy5-labeled WT RNA; parameters: species or system human
Method: In Vitro Binding by Measuring Changes in Fluorescence Polarization. Cy5-labeled RNA was folded by heating at 95° C. for 2 min in 1× Folding Buffer and cooled on ice. Serial dilutions of F1 (200 to 0.4 μM, 1:1 dilutions) were prepared in 1× Folding Buffer with 4% (w/v) bovine serum albumin (BSA) with constant DMSO concentration (2% v/v). The compound solutions (10 μL) were added to a well of non-binding 384-well plate (Corning). An equal volume of folded RNA was adding to each well with a final concentration of 50 nM. The samples were incubated at room temperature for 30 min, and then fluorescence polarization was measured with a Molecular Devices SpectraMax M5 plate reader with an excitation wavelength of 640 nm and an emission wavelength of 680 nm.

MDA-MB-231 cells [5] = experiment: Invasion assay; format: cell-based, human; settings: 48 h
Method: Invasion Assay. MDA-MB-231 cells were seeded in […] and treated with compound or transfected by ASO for 48 h as described in Cell Culture. After treatment for 48 h, the medium was replaced with fresh medium that contains same concentration of compound but lacking FBS for 8 h (serum starvation). ThinCert (GBO) 24-well inserts with 8 μm pores were coated with 100 μL of 0.5 mg/mL Matrigel (Fisher Scientific: CB40234) per well, and then cells were added into the insert (50,000 cells per well). Fresh growth medium with FBS was added to a 24-well plate (600 μL each well), and the inserts containing cells were placed on the top, allowing medium to cover the bottom of the insert. After 16 h, all medium was removed, and cells were washed by 1×DPBS twice. Cells were then fixed with 3% (w/v) paraformaldehyde (PFA) in 1×DPBS at room temperature for 30 min, followed by staining with Crystal Violet (10 mg/mL; 4:1H2O:MeOH) at room temperature for 20 min. A cotton swab was used to gently remove non-invasive cells on sitting on top of the Matrigel. The inserts were then imaged under a regular optical microscope (3 views per well), and the number of invasive cells were counted manually.

QSOX1-a protein = QSOX1-a protein abundance by Western blotting in MDA-MB-231 cells; format: cell-based, human; settings: 20 μM
Method: (§2) Measuring Protein Abundance by Western Blotting. MDA-MB-231 cells were seeded in 6-well plates at ˜50% confluency and treated with vehicle (DMSO) or compound as described above but without EU treatment. After 16 h, the compound-containing growth medium was removed and replaced with fresh medium containing compound (re-dosing). After an additional 32 h incubation, total protein was harvested (48 h total treatment time). The cells were then washed twice with cold 1×DPBS, and total protein was harvested by using Mammalian Protein Extraction Reagent (M-PER, Thermo Scientific) per the manufacturer's protocol. Protein concentration was quantified by using BCA Protein Assay Kit (Pierce), and the proteins were separated by using 10% SDS-polyacrylamide gel (20 μg protein per lane). After gel electrophoresis in 1× Running Buffer (50 mM MOPS, 50 mM Tris-base, pH 7.5, 1 mM EDTA, and 0.1% (w/v) SDS) at 120 V for 1 h, the proteins were transferred to a PVDF membrane (0.45 μm, Cytiva) at 300 mA for 1 h in 1× Transfer Buffer (25 mM Bicine, 25 mM Tris-base, pH 7.5, 1:4 MeOH:H2O). The membrane was blocked with 5% (w/v) non-fat dry milk in TBST (1×TBS containing 0.1% (v/v) Tween-20) for 1 h at room temperature. The primary antibody for QSOX1 protein (Cat #10092-932, Proteintech) or SQSTM1 protein (Cat #ab 109012, Abcam) was incubated with 1:1000 dilutions at 4° C. for 16 h. The membrane was then washed by TBST four times (5 min each) and then incubated with the secondary antibody (Cat #7074S, Cell Signaling) with 1:5000 dilution at room temperature for 2 h. The membrane was washed with TBST four times (5 min each) and imaged by using a SuperSignal West Pico Chemiluminescent Substrate (Pierce) per manufacturer's protocol. The blot was stripped by washing the membrane in 1× Stripping Buffer (200 mM glycine, pH 2.2, 4 mM SDS, 1% (v/v) Tween 20) at room temperature for 30 min, followed by blocking again as described above. […] Expression levels of proteins were quantified based on band intensity by using ImageJ. […]

MDA-MB-231 cells [6] = experiment: Proliferation assay; format: cell-based, human; settings: 48 h treatment
Method: Proliferation Assay. MDA-MB-231 cells were seeded in 96-well plates (Corning) at ˜40% confluency and treated with compound or transfected with ASO as described in Cell Culture. Compound was replenished every 16 h by replacing all the growth medium with freshly prepared medium containing same concentration of compounds. After 48 h total treatment period, proliferation was measured by using CellTiter 96 AQueous One Solution Cell Proliferation Assay (Cat #G3582, Promega) per manufacturer's protocol.

SQSTM1 protein = SQSTM1 protein abundance by Western blotting in MDA-MB-231 cells; format: cell-based, human; settings: F1-Amide 20 μM, F1-RIBOTAC 10 μM, 48 h
Method: as §2, with “temperature.” for “temperature. The primary antibody for QSOX1 protein (Cat #10092-932, Proteintech) or SQSTM1 protein (Cat #ab 109012, Abcam) was incubated with 1:1000 dilutions at 4° C. for 16 h. The membrane was then washed by TBST four times (5 min each) and then incubated with the secondary antibody (Cat #7074S, Cell Signaling) with 1:5000 dilution at room temperature for 2 h. The membrane was washed with TBST four times (5 min each) and imaged by using a SuperSignal West Pico Chemiluminescent Substrate (Pierce) per manufacturer's protocol. The blot was stripped by washing the membrane in 1× Stripping Buffer (200 mM glycine, pH 2.2, 4 mM SDS, 1% (v/v) Tween 20) at room temperature for 30 min, followed by blocking again as described above.”

human transcriptome = experiment: Chem-CLIP-Map-Seq transcriptome-wide target profiling in live MDA-MB-231 cells; format: cell-based; settings: 20 μM, 16 h; for number of transcripts enriched (Chem-CLIP-seq): before excluding control probe overlap
Method: Additional studies were performed in live MDA-MB-231 cells to profile the cellular targets as well as the small molecule binding site within them, via Chem-CLIP-Map-Seq,^21 which had not previously been applied transcriptome-wide. After treatment (20 μM; 16 h) and cross-linking, total RNA was harvested and fragmented prior to pull-down (FIG. 2A). Random fragmentation was completed first to: 1) reduce sequence bias in library preparation, 2) reduce background signal in the RNA-seq analysis; and 3) allow for only the regions bound by the small molecules to be pulled down rather than the entire transcript, identifying both the target and the binding site within it. In parallel, a control diazirine probe that lacks an RNA-binding functionality (FIG. 2B) was used to identify targets that non-specifically react with the cross-linking moiety, where cross-linking is not driven by the RNA-binding elements.
Genrich uses a null model with a log-normal distribution to calculate p values by comparing sequencing runs of the same RNA sample before and after pull-down.
Chemical-Cross-linking and Isolation by Pull-down (Chem-CLIP) in Live Cells. MDA-MB-231 cells were seeded in 60 mm dishes and allowed to reach ˜80% confluency. The cells were then treated with 20 μM of compound in growth medium and incubated for 16 h. Cells were washed with 1×DPBS and irradiated with UV light for 10 min. Total RNA was harvested using a Zymo Quick-RNA Miniprep Kit per the manufacturer's protocol with DNase treatment. Total RNA was chemically fragmented by using an NEBNext Magnesium RNA Fragmentation Module (E6150S) per manufacturer's protocol to achieve final lengths between 100-150 nucleotides Pull-down of cross-linked RNAs was performed by adding 10 μg of total RNA to 100 μL of azide-disulfide agarose beads (Click Chemistry Tools, 1238-2) pre-washed with 25 mM HEPES, pH 7.0. The click reaction and pull-down were completed as described in “In Vitro Chemical-Crosslinking and Isolation by Pull-down (Chem-CLIP) with Fluorescently Labeled RNA”. The pulled down RNA was purified by RNA CleanXP beads (Beckman, A66514) per manufacturer's protocol.
RNA-seq Library Preparation and Data Analysis. The quality of the pulled down RNA was analyzed by using an Agilent 2100 Bioanalyzer RNA nanochip as well as to confirm fragment lengths. RNA concentration was quantified by Qubit 2.0 Fluorometer (Invitrogen). The input RNA (200 ng) was depleted of ribosomal RNA with NEBNext rRNA Depletion Module (E6310) according to manufacturer's recommendations. Library preparation was performed with NEBNext Ultra II Directional RNA kit (E7760) per manufacturer's protocols. Briefly, the rRNA-depleted samples were reverse transcribed with random hexamer primers to generate first strand cDNA, followed by second strand synthesis with dUTP instead of dTTP. The cDNA was end repaired and adenylated at their 3′ ends, followed by adaptor ligation. The strand information of the RNA was preserved by using USER enzyme (Uracil-specific excision reagent) to degrade the second strand. The cDNA was then PCR amplified with barcoded Illumina-compatible primers to generate the final libraries. These libraries were loaded into a NextSeq 500 v2.5 flow cell and sequenced with 2×40 bp paired-end chemistry. All fastq files were aligned to the human genome by STAR.^9 The output bam files were processed by Genrich (v0.6.1, available at https://github.com/jsh58/Genrich) for peak calling to identify regions of enrichment (p<0.001 and False Discovery Rate=1%). Fold enrichment was calculated by Deeptool^10 and visualized by IGV browser.^11 A minimum read count of 5 and a minimum fold enrichment of 1.5 were applied filter to filter out low-confidence peaks.

[7] = upon addition of small molecule

Row | Structure (SMILES) | number of enriched transcripts also enriched by the control probe (human transcriptome) [transcripts] | share of enriched transcripts also enriched by the control probe (human transcriptome) [%] | unique transcripts identified for the small molecule (human transcriptome) | number of transcripts enriched (Chem-CLIP-seq) (human transcriptome) [transcripts] | further results
1 | CCCNC(=O)CCC(=O)N(C)[C@H]1CC[C@@H](c2ccc(Cl)c(Cl)c2)c2ccccc21 [Compound F1-Amide] | – | – | – | – | effect on Tm or ΔG37° C. of mutant RNA [1]: No significant effect; Tm of WT model RNA upon addition of compound ([2]; RNA alone 51.8): 53.7 °C; ΔG37° C. of WT model RNA upon addition of compound ([2]; RNA alone −2.7): -3.0 kcal/mol; decrease of DG°37 [2, 7]: 0.3 kcal/mol; increase of melting temperature (Tm) [2, 7]: 1.9 °C; competition of F1 cross-linking to the QSOX1-a target site (competitive Chem-CLIP) [3]: dose-dependently competed off; Kd [4]: 26 ± 9 µM; effect on invasion (MDA-MB-231 cells [5]): no significant effect; reduction of QSOX1-a protein (QSOX1-a protein): ~15%; effect on proliferation of MDA-MB-231 cells (MDA-MB-231 cells [6]): dose-dependently reduced proliferation; effect on SQSTM1 protein levels (SQSTM1 protein): Neither
2 | C#CCCC1(CCC(=O)N2CCN(c3nncc4sccc34)CC2)N=N1 [Compound F2] | 52 | 31 | 38 | 166 | –
3 | C#CCCC1(CCC(=O)N(CCNC(=O)c2ccc(C)c(F)c2)Cc2ccncc2)N=N1 [Compound F3] | 53 | 32 | – | 163 | –
4 | C#CCCC1(CCC(=O)Nc2nnc(SCc3ccc(F)c4cccnc34)n2C)N=N1 [Compound F5] | 57 | 62 | 3 | 92 | number of transcripts enriched after eliminating transcripts also bound by the control diazirine (human transcriptome): 35
5 | C#CCCC1(CCC(=O)Nc2nc(-c3ccc(-n4cccn4)cc3)cs2)N=N1 [Compound F6] | 55 | 43 | – | 127 | –
